Measured values reported in ChEMBL document CHEMBL1157759, “Discovery of GS-9131: Design, synthesis and optimization of amidate prodrugs of the novel nucleoside phosphonate HIV reverse transcriptase (RT) inhibitor GS-9148” (Bioorg Med Chem, 2010).

Experiments:
PBMC = assay: Metabolic stability in cathepsin A-overexpressing human PBMC assessed as compound degradation per ug of protein at 10 uM after 120 mins by scintillation counting; conditions: 2 h, 30 µM
[1] = Hydrolytic stability assessed as compound degradation per ug of protein at 10 uM after 90 mins by scintillation counting in presence of human recombinant cathepsin A; conditions: 1.5 h
[2] = system: Human immunodeficiency virus 1; assay: Antiviral activity against HIV1 3B infected in human MT2 cells assessed as inhibition of virus-induced cytopathic effect after 5 days by XTT assay; assay type: functional, organism-based
[3] = Half life in dog hepatocytes at 2 uM by LC/MS/MS analysis
[4] = Cytotoxicity against human MT2 cells after 5 days by XTT assay
Homo sapiens = species: Homo sapiens; assay: in vitro; conditions: plasma
[5] = Metabolic stability in dog plasma assessed as compound remaining after 60 mins
[6] = Cytotoxicity against human HepG2 cells assessed as inhibition of mitochondrial DNA replication after 14 days; conditions: read-out: MTC50
[7] = Half life in human hepatocytes at 2 uM by LC/MS/MS analysis
[8] = Half life in dog intestine S9 fraction at 2 uM by LC/MS/MS analysis; conditions: intestine S9 fraction, t1/2
[9] = Clearance in iv dosed Beagle dog after 24 hrs; conditions: in vivo
[10] = Human immunodeficiency virus 1, 3B, MT2, 120 h

SMILES | Activity (PBMC) [pmol/min] | Activity [1] [pmol/min] | EC50 [2, 10] [nM] | CC50 at 120 h [4] [nM] | also measured
CCOC(=O)[C@H](Cc1ccccc1)NP(=O)(CO[C@@H]1C=C(F)[C@H](n2cnc3c(N)ncnc32)O1)N[C@@H](Cc1ccccc1)C(=O)OCC | 40 | 41020 | 8.9 | – | –
CCOC(=O)[C@H](C)NP(=O)(CO[C@@H]1C=C(F)[C@H](n2cnc3c(N)ncnc32)O1)Oc1ccccc1 (stereo partly specified) [listing 1 of 2 here] | – | – | – | – | EC50 ([2]; mt2): 262 nM
CCCCOC(=O)[C@H](Cc1ccccc1)NP(=O)(CO[C@@H]1C=C(F)[C@H](n2cnc3c(N)ncnc32)O1)N[C@@H](Cc1ccccc1)C(=O)OCCCC | 50 | 66680 | 8.4 | 4800 | half-life at 2 µM [3]: 0.167 h
CCCOC(=O)[C@H](C)NP(=O)(CO[C@@H]1C=C(F)[C@H](n2cnc3c(N)ncnc32)O1)N[C@@H](C)C(=O)OCCC | – | – | 1060 | – | –
CC(C)COC(=O)[C@H](C)NP(=O)(CO[C@@H]1C=C(F)[C@H](n2cnc3c(N)ncnc32)O1)Oc1ccccc1 (stereo partly specified) | – | – | 58 | – | –
CCCCOC(=O)[C@H](CC)NP(=O)(CO[C@@H]1C=C(F)[C@H](n2cnc3c(N)ncnc32)O1)N[C@@H](CC)C(=O)OCCCC | 1.3 | 1872 | 90 | > 100000 | half-life at 2 µM ([3]; t1/2): 1.22 h; remaining at 1 h (Homo sapiens; Stability): 99%; remaining at 1 h ([5]; Stability): 100%
CCCOC(=O)[C@H](C)NP(=O)(CO[C@@H]1C=C(F)[C@H](n2cnc3c(N)ncnc32)O1)Oc1ccccc1 (stereo partly specified) | 26 | 19103 | 52 | 31000 | half-life at 2 µM ([3]; t1/2): 1.47 h
C[C@H](NP(=O)(CO[C@@H]1C=C(F)[C@H](n2cnc3c(N)ncnc32)O1)Oc1ccccc1)C(=O)OC1CCCC1 (stereo partly specified) | 3 | 5688 | 63 | > 100000 | –
CC(C)OC(=O)[C@H](C)NP(=O)(CO[C@@H]1C=C(F)[C@H](n2cnc3c(N)ncnc32)O1)Oc1ccccc1 (stereo in doubt; 18s) [(2S)-ISOPROPYL 2-(((2R,5R)-5-(6-AMINO-9H-PURIN-9-YL)-4-FLUORO-2,5-DIHYDROFURAN-2-YLOXY)(PHENOXY)PHOSPHORYLAMINO)PROPANOATE (ENANTIOMERIC MIX)] | 0.3 | 216 | – | – | half-life at 2 µM ([3]; t1/2): 1.47 h; EC50 ([2]; mt2): 728 nM
Nc1ncnc2c1ncn2[C@@H]1O[C@H](OCP(=O)(N[C@@H](Cc2ccccc2)C(=O)OC2CCC2)Oc2ccccc2)C=C1F (stereo partly specified) | – | – | 20 | – | –
CCOC(=O)[C@H](C)NP(=O)(CO[C@@H]1C=C(F)[C@H](n2cnc3c(N)ncnc32)O1)N[C@@H](C)C(=O)OCC | – | – | 723 | – | –
C[C@H](NP(=O)(CO[C@@H]1C=C(F)[C@H](n2cnc3c(N)ncnc32)O1)Oc1ccccc1)C(=O)OCC1CC1 (stereo partly specified) | – | – | 59 | – | –
CCC(CC)OC(=O)[C@H](C)NP(=O)(CO[C@@H]1C=C(F)[C@H](n2cnc3c(N)ncnc32)O1)Oc1ccccc1 (stereo partly specified) | 0 | 0 | 662 | 8350 | –
CCCCOC(=O)[C@H](C)NP(=O)(CO[C@@H]1C=C(F)[C@H](n2cnc3c(N)ncnc32)O1)Oc1ccccc1 (stereo partly specified) | 7.3 | 6183 | 92 | 91000 | half-life at 2 µM ([3]; t1/2): 1.05 h
CC(C)OC(=O)[C@H](Cc1ccccc1)NP(=O)(CO[C@@H]1C=C(F)[C@H](n2cnc3c(N)ncnc32)O1)Oc1ccccc1 (stereo partly specified) | – | – | 63 | – | –
CCCOC(=O)[C@H](Cc1ccccc1)NP(=O)(CO[C@@H]1C=C(F)[C@H](n2cnc3c(N)ncnc32)O1)N[C@@H](Cc1ccccc1)C(=O)OCCC | 20 | 27642 | 5.2 | – | –
CCCCCOC(=O)[C@H](C)NP(=O)(CO[C@@H]1C=C(F)[C@H](n2cnc3c(N)ncnc32)O1)Oc1ccccc1 (stereo partly specified) | 6.7 | 5088 | 33 | 27000 | half-life at 2 µM ([3]; t1/2): 0.95 h
CC(C)COC(=O)CNP(=O)(CO[C@@H]1C=C(F)[C@H](n2cnc3c(N)ncnc32)O1)Oc1ccccc1 (stereo partly specified) | 0.72 | 226 | 1120 | 22000 | –
C[C@H](Cn1cnc2c(N)ncnc21)OCP(=O)(O)O [TENOFOVIR ANHYDROUS] | – | – | 13 | > 50000 | CC50 at 336 h [6]: 3600 nM

SMILES | Activity (PBMC) [pmol/min] | Activity [1] [pmol/min] | EC50 [2, 10] [nM] | CC50 at 120 h [4] [nM] | also measured
CCOC(=O)[C@H](C)NP(=O)(CO[C@@H]1C=C(F)[C@H](n2cnc3c(N)ncnc32)O1)Oc1ccccc1 (stereo partly specified) [listing 2 of 2 here] | – | – | – | – | EC50 ([2]; mt2): 157 nM
CC(C)COC(=O)CNP(=O)(CO[C@@H]1C=C(F)[C@H](n2cnc3c(N)ncnc32)O1)NCC(=O)OCC(C)C | 0 | 0 | 1610 | > 100000 | –
CCOC(=O)[C@H](C)NP(=O)(CO[C@@H]1C=C(F)[C@H](n2cnc3c(N)ncnc32)O1)OCC(F)(F)F (stereo partly specified) | 0.69 | 1132 | 1050 | > 100000 | half-life at 2 µM [3]: 1.43 h; half-life at 2 µM [7]: 3.08 h
CCCCSC(=O)[C@@H](Cc1ccccc1)NP(=O)(CO[C@@H]1C=C(F)[C@H](n2cnc3c(N)ncnc32)O1)Oc1ccccc1 (stereo partly specified) | 2.1 | 1510 | 141 | > 100000 | half-life at 2 µM ([3]; t1/2): 0.933 h
CC(C)COC(=O)[C@H](C)NP(=O)(CO[C@@H]1C=C(F)[C@H](n2cnc3c(N)ncnc32)O1)N[C@@H](C)C(=O)OCC(C)C | 2.1 | 1770 | 119 | > 100000 | half-life at 2 µM [3]: 3.22 h
CCCCOC(=O)[C@H](CC)NP(=O)(CO[C@@H]1C=C(F)[C@H](n2cnc3c(N)ncnc32)O1)Oc1ccccc1 (stereo partly specified) | 1.4 | 1377 | 88 | 70000 | half-life at 2 µM ([3]; t1/2): 1.52 h
CCCOC(=O)[C@H](Cc1ccccc1)NP(=O)(CO[C@@H]1C=C(F)[C@H](n2cnc3c(N)ncnc32)O1)Oc1ccccc1 (stereo partly specified) | – | – | 4.9 | – | –
CC[C@H](NP(=O)(CO[C@@H]1C=C(F)[C@H](n2cnc3c(N)ncnc32)O1)N[C@@H](CC)C(=O)OC(C)C)C(=O)OC(C)C | 0.05 | 0 | > 2000 | – | half-life at 2 µM [3]: 11.5 h; remaining at 1 h (Homo sapiens): 100%; remaining at 1 h [5]: 100%
CCOC(=O)[C@H](C)NP(=O)(CO[C@@H]1C=C(F)[C@H](n2cnc3c(N)ncnc32)O1)Oc1ccccc1 (stereo partly drawn) [(2S)-ETHYL 2-((((2R,5R)-5-(6-AMINO-9H-PURIN-9-YL)-4-FLUORO-2,5-DIHYDROFURAN-2-YLOXY)METHYL)(PHENOXY)PHOSPHORYLAMINO)PROPANOATE (ENANTIOMERIC MIX)] | – | – | – | – | EC50 ([2]; mt2): 96 nM
C[C@H](NP(=O)(CO[C@@H]1C=C(F)[C@H](n2cnc3c(N)ncnc32)O1)Oc1ccccc1)C(=O)OCC1CCC1 (stereo partly specified) | – | – | 25 | – | –
CCOC(=O)[C@H](C)OP(=O)(CO[C@@H]1C=C(F)[C@H](n2cnc3c(N)ncnc32)O1)Oc1ccccc1 (stereo partly specified) | – | – | 2000 | – | –
CC[C@H](NP(=O)(CO[C@@H]1C=C(F)[C@H](n2cnc3c(N)ncnc32)O1)Oc1ccccc1)C(=O)OCC(C)C (stereo partly specified) | 1.9 | 728 | 103 | > 100000 | half-life at 2 µM ([3]; t1/2): 2.12 h
Nc1ncnc2c1ncn2[C@@H]1O[C@H](OCP(=O)(N[C@@H](Cc2ccccc2)C(=O)OCC2CCC2)Oc2ccccc2)C=C1F (stereo partly specified) | 24 | 37017 | 3.8 | 46500 | half-life at 2 µM ([3]; t1/2): 0.383 h; half-life at 2 µM ([7]; t1/2): 1.03 h; half-life at 2 µM [8]: 3.4 min
CC(C)COC(=O)[C@H](Cc1ccccc1)NP(=O)(CO[C@@H]1C=C(F)[C@H](n2cnc3c(N)ncnc32)O1)OCC(F)(F)F (stereo partly specified) | 22 | 30107 | 119 | > 100000 | half-life at 2 µM [3]: 0.45 h
CCCCOC(=O)[C@H](C)NP(=O)(CO[C@@H]1C=C(F)[C@H](n2cnc3c(N)ncnc32)O1)N[C@@H](C)C(=O)OCCCC | 18 | 17355 | 68 | 51000 | half-life at 2 µM [3]: 0.8 h; clearance at 24 h [9]: 53.7 mL/min/kg; remaining at 1 h (Homo sapiens): 96%; remaining at 1 h [5]: 100%
CC(C)OC(=O)CNP(=O)(CO[C@@H]1C=C(F)[C@H](n2cnc3c(N)ncnc32)O1)NCC(=O)OC(C)C | – | – | > 2000 | – | –
CC[C@H](NP(=O)(CO[C@@H]1C=C(F)[C@H](n2cnc3c(N)ncnc32)O1)N[C@@H](CC)C(=O)OCC(C)C)C(=O)OCC(C)C | 1.3 | 867 | 128 | – | half-life at 2 µM [3]: 1.18 h
Nc1ncnc2c1ncn2[C@@H]1O[C@H](OCP(=O)(N[C@@H](Cc2ccccc2)C(=O)OCC2CC2)Oc2ccccc2)C=C1F (stereo partly specified) | 41 | 39270 | 7.5 | > 100000 | half-life at 2 µM ([3]; t1/2): 0.283 h; half-life at 2 µM ([7]; t1/2): 0.667 h
